Where “and” joins values, the source holds several entries; their conditions need not be identical. Equal values may be shown once. Read-outs that look alike come from different tables or passages of the source.
Legend:
[1] = system: Ectromelia Virus (ECTV, MOS strain); experiment: microbe, parasite or virus in culture; format: cell-based
[2] = system: cowpox virus, strain Brighton; experiment: microbe, parasite or virus in culture; format: cell-based; conditions: for EC50: read-out: Cowpox Brighton EC50
HFF cells = experiment: Neutral-red uptake assay for toxicity; conditions: 7 days
[3] = system: vaccinia virus strain, Copenhagen; experiment: microbe, parasite or virus in culture; format: cell-based; conditions: for EC50: read-out: Vaccinia Copenhagen EC50
ectromelia virus (ECTV) = system: ectromelia virus (ECTV); design: species or system A/Ncr mice; conditions: mouse, in vivo; for MDD, Mean day of death / Mortality: po
[4] = Neutral-red uptake assay for toxicity; conditions: human, HFF cells
[5] = Metabolic stability testing with human liver S9 fractions; conditions: FIG. 3; 37° C., protein 3 mg/mL, compound 1 μM
[6] = Metabolic stability testing with monkey liver S9 fractions; conditions: FIG. 3; 37° C., protein 3 mg/mL, compound 1 μM
[7] = read-out: Ectromelia Virus EC50

17-methyl-octadecyloxyethyl cidofovir [Compound 17M-ODE-CDV]
EC50 [1, 7]: 80 nM
EC50 [2]: 50 nM
CC50 (HFF cells; Table 3, neutral-red uptake): 15000 ± 4000 nM
EC50 [3]: 32 nM

CC(C)CCCCCCCCCCCCCCCCOCCOP(=O)(O)CO[C@H](CO)Cn1cnc2c(N)ncnc21 [17M-ODE-(S)-HPMPA, 2-(17-methyloctadecyloxy)ethyl (S)-HPMPA]
EC50 [2]: 11 nM
CC50 (HFF cells; Table 4, neutral-red uptake): 800 nM
EC50 [3]: 9 nM

CC(C)CCCCCCCCCCCCCCOCCCOP(=O)(O)CO[C@H](CO)Cn1cnc2c(N)ncnc21 [15M-HDP-(S)-HPMPA, 3-(15-methylhexadecyloxy)propyl (S)-HPMPA]
activity relative to HDP-(S)-HPMPA in lethal ectromelia infection (ectromelia virus (ECTV)): more active than HDP-(S)-HPMPA
MDD, Mean day of death (ectromelia virus (ECTV); 2.5 mg/kg): 14.3
Mortality (ectromelia virus (ECTV); 2.5 mg/kg): 3/5
Mortality (ectromelia virus (ECTV); 5 mg/kg): 0/5
Mortality (ectromelia virus (ECTV); 10 mg/kg): 0/5
EC50 [2]: 52 nM
CC50 (HFF cells; Table 4, neutral-red uptake): 27500 nM
EC50 [3]: 12 nM

CCCCCCCCCCCCCCCCOCCCOP(=O)(O)CO[C@H](CO)Cn1cnc2c(N)ncnc21 [HDP-(S)-HPMPA, reference compound]
MDD, Mean day of death (ectromelia virus (ECTV); 2.5 mg/kg): 9.4
Mortality (ectromelia virus (ECTV); 2.5 mg/kg): 5/5
MDD, Mean day of death (ectromelia virus (ECTV); 5 mg/kg): 11
Mortality (ectromelia virus (ECTV); 5 mg/kg): 1/5
Mortality (ectromelia virus (ECTV); 10 mg/kg): 0/5
EC50 [2]: 18 nM
CC50 (HFF cells; Table 4, neutral-red uptake): 31800 nM
EC50 [3]: 10 nM

CCCCCCCCCCCCCCCCOCCOP(=O)(O)COC(CO)Cn1cnc2c(N)ncnc21 (stereo not shown) [HDE-HPMPA, reference compound]
EC50 [1, 7]: 50 nM

CC(C)CCCCCCCCCCCCCCOCCOP(=O)(O)CO[C@H](CO)Cn1cnc2c(N)ncnc21 [15M-HDE-HPMPA, 3-(15-methylhexadceyloxy)ethyl (S)-HPMPA]
EC50 [1, 7]: 12 nM

CCCCCCCCCCCCCCCCCCOCCOP(=O)(O)CO[C@H](CO)Cn1cnc2c(N)ncnc21 [ODE-(S)-HPMPA]
EC50 [2]: 12 nM
CC50 (HFF cells; Table 4, neutral-red uptake): 2100 nM
EC50 [3]: 8 nM

14-methyl-pentadecyloxypropyl cidofovir [Compound 14M-PDP-CDV]
EC50 [1, 7]: 170 nM
MDD, Mean day of death (ectromelia virus (ECTV); 2.5 mg/kg): 14
Mortality (ectromelia virus (ECTV); 2.5 mg/kg): 1/5
Mortality (ectromelia virus (ECTV); 5 mg/kg): 0/5
Mortality (ectromelia virus (ECTV); 10 mg/kg): 0/5
EC50 [2]: 130 nM
CC50 (HFF cells; Table 3, neutral-red uptake): 18000 ± 1100 nM
EC50 [3]: 140 nM

Nc1ccn(C[C@@H](CO)OCP(=O)(O)O)c(=O)n1 [CDV, cidofovir]
Cowpox Brighton SI (Selectivity Index) = CC50/EC50 [2]: >10 and >8.3
EC50 ([2]; Cowpox virus, HFF): 31000 ± 1700 nM
EC50 [2]: 38100 nM
CC50 at 7 days [4]: > 317000 nM
CC50 (HFF cells; Table 4, neutral-red uptake): > 317000 nM
Vaccinia Copenhagen SI (Selectivity Index) = CC50/EC50 [3]: >17 and >16
EC50 ([3]; Orthopoxvirus vaccinia, HFF): 19000 ± 9900 nM
EC50 [3]: 19400 nM

CC(C)CCCCCCCCCCCCOCCCOP(=O)(O)CO[C@H](CO)Cn1ccc(N)nc1=O [Compound 13M-TDP-CDV, 13-methyl-tetradecyloxypropyl cidofovir]
EC50 [1, 7]: 400 nM
MDD, Mean day of death (ectromelia virus (ECTV); 2.5 mg/kg): 9.3
Mortality (ectromelia virus (ECTV); 2.5 mg/kg): 4/5
Mortality (ectromelia virus (ECTV); 5 mg/kg): 0/5
Mortality (ectromelia virus (ECTV); 10 mg/kg): 0/5
EC50 [2]: 200 nM
CC50 (HFF cells; Table 3, neutral-red uptake): 41000 ± 2000 nM
EC50 [3]: 130 nM

CCCCCCCCCCCCCCCCOCCCOP(=O)(O)CO[C@H](CO)Cn1ccc(N)nc1=O [HDP-CDV, hexadecyloxypropyl-CDV, reference compound]
CC50 (in vitro): 10000 nM
EC50 ([1]; Ectromelia virus, CV-1, read-out: Ectromelia Virus EC50): 140 nM
MDD, Mean day of death (ectromelia virus (ECTV); 2.5 mg/kg): 13
Mortality (ectromelia virus (ECTV); 2.5 mg/kg): 2/5
Mortality (ectromelia virus (ECTV); 5 mg/kg): 0/5
Mortality (ectromelia virus (ECTV); 10 mg/kg): 0/5
Cowpox Brighton SI (Selectivity Index) = CC50/EC50 [2]: 470
EC50 ([2]; Cowpox virus, HFF): 200 nM
CC50 at 7 days [4]: 94000 nM
Vaccinia Copenhagen SI (Selectivity Index) = CC50/EC50 [3]: 470
EC50 ([3]; Orthopoxvirus vaccinia, HFF): 200 nM

CC(C)CCCCCCCCCCCCCCOCCCOP(=O)(O)CO[C@H](CO)Cn1ccc(N)nc1=O [Compound 15M-HDP-CDV, 15-methyl-hexadecyloxypropyl cidofovir]
EC50 [1, 7]: 40 nM
degradation by human liver S9 fractions (% of drug remaining versus time), relative to HDP-CDV [5]: markedly slower
EC50 [2]: 340 nM
degradation by monkey liver S9 fractions (% of drug remaining versus time), relative to HDP-CDV [6]: markedly slower
CC50 (HFF cells; Table 3, neutral-red uptake): 15200 ± 5500 nM
EC50 [3]: 100 nM

CC(C)CCCCCCCCCCCOCCCOP(=O)(O)CO[C@H](CO)Cn1ccc(N)nc1=O [Compound 12M-TrDP-CDV, 12-methyl-tridecyloxypropyl cidofovir]
EC50 [1, 7]: 940 nM
EC50 [2]: 900 nM
CC50 (HFF cells; Table 3, neutral-red uptake): 44000 ± 5400 nM
EC50 [3]: 700 nM
